Results on 4 compounds are retold here after patent US12351569B2, “ALDH-2 inhibitor compounds and methods of use” (Amygdala Neurosciences, Inc., priority 2022, dated 2025).

Structures are written as SMILES. pIC50: −log10 of the molar value.

For one data set, the target named is T1, recombinant human ALDH-1 (Homo sapiens, UniProt P00352).
T1 sequence (P00352 1-501): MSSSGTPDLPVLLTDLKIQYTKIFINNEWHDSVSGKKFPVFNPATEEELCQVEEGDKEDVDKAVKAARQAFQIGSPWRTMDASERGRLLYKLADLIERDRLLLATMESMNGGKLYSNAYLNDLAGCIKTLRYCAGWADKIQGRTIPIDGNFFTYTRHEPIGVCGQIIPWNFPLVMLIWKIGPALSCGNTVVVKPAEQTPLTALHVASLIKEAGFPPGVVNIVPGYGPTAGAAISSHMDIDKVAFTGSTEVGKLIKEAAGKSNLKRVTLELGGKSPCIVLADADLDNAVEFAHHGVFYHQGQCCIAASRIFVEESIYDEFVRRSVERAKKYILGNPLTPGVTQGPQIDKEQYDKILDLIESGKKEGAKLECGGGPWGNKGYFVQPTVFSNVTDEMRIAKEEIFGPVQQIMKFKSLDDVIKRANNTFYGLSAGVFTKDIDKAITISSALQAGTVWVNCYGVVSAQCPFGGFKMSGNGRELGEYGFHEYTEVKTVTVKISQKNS
Put plainly: ALDH-1 inhibition assay. In kind it is biochemical. The settings on record: 60 min pre-incubation; 10 μM = highest concentration tested; read-out: Enzymatic Assays IC50 ALDH1.

The target in another data set is T2, MAO-A (Homo sapiens, UniProt P21397).
T2 sequence (P21397 1-527): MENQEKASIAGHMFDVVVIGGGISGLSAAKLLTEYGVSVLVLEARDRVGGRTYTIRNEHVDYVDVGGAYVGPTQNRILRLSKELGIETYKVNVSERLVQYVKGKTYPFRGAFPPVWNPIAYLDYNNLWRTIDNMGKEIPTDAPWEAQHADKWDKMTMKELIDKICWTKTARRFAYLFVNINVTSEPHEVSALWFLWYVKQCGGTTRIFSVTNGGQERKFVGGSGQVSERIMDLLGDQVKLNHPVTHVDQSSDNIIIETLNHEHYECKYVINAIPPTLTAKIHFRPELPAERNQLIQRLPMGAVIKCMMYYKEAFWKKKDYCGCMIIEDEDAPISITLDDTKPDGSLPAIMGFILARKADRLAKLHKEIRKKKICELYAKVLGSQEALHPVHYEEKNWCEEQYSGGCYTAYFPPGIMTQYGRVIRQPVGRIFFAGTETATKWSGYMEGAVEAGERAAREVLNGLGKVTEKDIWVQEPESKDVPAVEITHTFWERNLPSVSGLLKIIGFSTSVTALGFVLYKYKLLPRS
Briefly: MAO-A inhibition assay (luminogenic substrate). The class given is biochemical. The settings on record: 20 min pre-incubation; 10 μM = highest concentration tested; read-out: Enzymatic Assays IC50 MAO-A. As to the method:
(§1) D. MAO-A and MAO-B inhibition assays: MAO assays included luminogenic MAO substrate, reaction buffers, Luciferin Detection, and a reconstitution buffer with esterase. The MAO reaction mixture used in the assay included microsome contained MAO-A (2 μg) or MAO-B (10 μg), 160 μM substrate for MAO-A or 16 μM substrate for MAO-B, MAO-A buffer (100 mM Hepes buffer, pH 7.5, 5% glycerol) or MAO-B buffer (100 mM Hepes, pH 7.5, 5% glycerol, 10% dimethyl sulfoxide) in a final volume of 30 μL. After 20 minutes of pre-incubation of the MAO-A or MAO-B enzyme with the test ALDH-2 inhibitor compound, the reaction was initiated by adding enzyme substrate and the […] reaction was allowed to proceed for 60 minutes. Reconstituted Luciferin Detection Reagent (30 μL) was then added is added to simultaneously stop the MAO reaction and convert the methyl ester derivative to luciferin and produce light. The amount of light produced is directly proportional to the activity of MAO. The mixtures were further incubated for 20 minutes and activity of the enzyme was determined using Perkin-Elmer Envision Reader.

The subject of a further data set is HepaRG spheroids. Put plainly: HepaRG 3D spheroid assay (hepatotoxic liability). The class given is cell-based. The note with it: minimum effective concentration crossing vehicle control threshold of cell health marker; dosed days 1, 4, 7, 10, 13; 100 μM = highest concentration tested. The source says:
See e.g., Walker et al., “The evolution of strategies to minimise the risk of human drug-induced liver injury (DILI) in drug discovery and development,” (2020) Archives of Toxicology, Vol. 94: 2559-2585, which is hereby incorporated by reference herein in its entirety. […] In applying the HepaRG spheroid assay analysis to determining the hepatoxic liability of ALDH-2 inhibitor compounds, consideration is made of the binding to plasma protein and the limitations to CNS penetration due to the blood-brain barrier.
E. HepaRG® 3D spheroid assay: The HepaRG 3D spheroid assay is described in Walker et al., “The evolution of strategies to minimise the risk of human drug-induced liver injury (DILI) in drug discovery and development,” (2020) Archives of Toxicology, Vol. 94: 2559-2585. Briefly, HepaRG® cells were seeded into ultra-low adhesion 96-well black walled clear bottomed spheroid microplates. […] At the end of the incubation period, the spheroids were loaded with the relevant dye/antibody for each cell health marker (spheroid count, spheroid size, DNA structure, mitochondrial mass, mitochondrial membrane potential, oxidative stress, glutathione content, and cellular ATP). The plates were then scanned using an automated fluorescent cellular imager, ArrayScan® (Thermo Scientific Cellomics).

The target in another data set is T3, recombinant human ALDH-2 (Homo sapiens, UniProt P05091).
T3 sequence (P05091 18-517): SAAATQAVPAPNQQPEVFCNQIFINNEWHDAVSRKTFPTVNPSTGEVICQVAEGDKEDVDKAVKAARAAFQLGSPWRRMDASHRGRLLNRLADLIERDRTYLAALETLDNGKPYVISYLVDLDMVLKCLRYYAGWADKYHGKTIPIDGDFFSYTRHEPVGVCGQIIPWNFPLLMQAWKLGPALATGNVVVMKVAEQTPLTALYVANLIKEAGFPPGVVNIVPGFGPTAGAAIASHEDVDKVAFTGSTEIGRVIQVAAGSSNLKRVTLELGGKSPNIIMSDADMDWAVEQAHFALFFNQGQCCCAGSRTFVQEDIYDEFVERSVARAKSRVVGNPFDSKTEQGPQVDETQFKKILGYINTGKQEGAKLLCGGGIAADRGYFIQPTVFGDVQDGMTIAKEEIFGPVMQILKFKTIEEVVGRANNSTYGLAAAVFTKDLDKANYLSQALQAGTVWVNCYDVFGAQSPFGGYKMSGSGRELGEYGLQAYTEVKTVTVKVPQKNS
Put plainly: ALDH-2 inhibition assay. In kind it is biochemical. The settings on record: 60 min pre-incubation; 10 μM = highest concentration tested; read-out: Enzymatic Assays IC50 ALDH2.

Another data set has as its target T4, MAO-B (Homo sapiens, UniProt P27338).
T4 sequence (P27338 1-520): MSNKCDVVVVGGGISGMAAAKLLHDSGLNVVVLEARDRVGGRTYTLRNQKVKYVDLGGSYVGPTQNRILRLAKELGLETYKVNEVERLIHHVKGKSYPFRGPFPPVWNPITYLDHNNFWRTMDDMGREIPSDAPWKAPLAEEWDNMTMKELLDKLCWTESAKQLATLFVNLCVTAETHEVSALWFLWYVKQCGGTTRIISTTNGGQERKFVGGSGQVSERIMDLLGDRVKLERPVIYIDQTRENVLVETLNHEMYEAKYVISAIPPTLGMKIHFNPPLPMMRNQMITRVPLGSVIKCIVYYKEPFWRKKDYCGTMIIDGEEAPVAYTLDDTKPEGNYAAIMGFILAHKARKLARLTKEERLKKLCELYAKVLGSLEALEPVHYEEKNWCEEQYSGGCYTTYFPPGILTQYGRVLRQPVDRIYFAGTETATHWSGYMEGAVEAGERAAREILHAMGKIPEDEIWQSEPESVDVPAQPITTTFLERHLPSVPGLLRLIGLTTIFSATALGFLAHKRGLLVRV
Briefly: MAO-B inhibition assay (luminogenic substrate). The settings on record: 20 min pre-incubation; 10 μM = highest concentration tested; read-out: Enzymatic Assays IC50 MAO-B. The class given is biochemical. Here is the method:
as §1

Description for recombinant human ALDH-1: B. ALDH-1 inhibition assay: The ALDH-1 reaction mixture used in the assay contained 100 μM formaldehyde, 2.5 mM NAD+, 20 mM NaCl, 10 mM MgCl2, 1 mM dithiothreitol (DTT; reducing agent), and 50 nM recombinant human ALDH-1 in 50 mM Hepes buffer, pH 7.5 in a final volume of 10 μL using 384-well Corning 3820 plates. After 60 min of pre-incubation of the test ALDH-2 inhibitor compound with ALDH-1, the reaction was started by adding NAD+ and formaldehyde and the assay reaction mixture was allowed to proceed for 60 minutes. Activity of the ALDH-1 enzyme was determined by monitoring NADH formation using Perkin-Elmer Envision Reader with excitation and emission wavelengths set at 340 and 460 nm, respectively.
Description for recombinant human ALDH-2: A. ALDH-2 inhibition assay: The ALDH-2 reaction mixture used in the assay contained 125 μM formaldehyde, 75 μM NAD+, 20 mM NaCl, 10 mM MgCl2, and 20 nM recombinant human ALDH-2 in 50 mM Hepes buffer, pH 7.5 in a final volume of 10 μL using 384-well Corning 3820 plates. After 60 min of pre-incubation of the test ALDH-2 inhibitor compound with ALDH-2, the reaction was started by adding NAD+ and formaldehyde and the assay reaction mixture was allowed to proceed for 60 minutes. Activity of the ALDH-2 enzyme was determined by monitoring NADH formation using Perkin-Elmer Envision Reader with excitation and emission wavelengths set at 340 and 460 nm, respectively.

Take `Cc1cccc(Cl)c1C(=O)NCc1ccc(N2CCNC(=O)C2)nc1` [(1a), 2-chloro-6-methyl-N-((6-(3-oxopiperazin-1-yl)pyridin-3-yl)methyl)benzamide]: the pIC50 was below 5.00 at recombinant human ALDH-1, below 5.00 at MAO-A, 7.92 on recombinant human ALDH-2 and below 5.00 at MAO-B. Moreover, in the data set on HepaRG spheroids, the “HepaRG 3D Spheroid MEC” value worked out at 54.1 µM.
On to `O=C1CN(c2ccc(CNC(=O)c3ccccc3Cl)cn2)CCN1` [(1b), 2-Chloro-N-((6-(3-oxopiperazin-1-yl)pyridin-3-yl)methyl)benzamide], for which the negative-log IC50 (pIC50) on recombinant human ALDH-1 was below 5.00; at MAO-A, below 5.00; at recombinant human ALDH-2, 7.24; on MAO-B, below 5.00. Besides, the “HepaRG 3D Spheroid MEC” value in the data set on HepaRG spheroids is recorded as “No Effect”.
With `O=C1CN(c2ccc(CNC(=O)c3c(Cl)cccc3Cl)cn2)CCN1` [(1d), 2,6-Dichloro-N-((6-(3-oxopiperazin-1-yl)pyridin-3-yl)methyl)benzamide], the pIC50 on recombinant human ALDH-1 is below 5.00; at MAO-A, below 5.00; on recombinant human ALDH-2, 8.10; on MAO-B, below 5.00. Further, in the data set with HepaRG spheroids, the “HepaRG 3D Spheroid MEC” value turned out to be 29.4 µM.
On to `Cc1nccc(Cl)c1C(=O)NCc1ccc(N2CCNC(=O)C2)nc1` [(1c), 4-Chloro-2-methyl-N-((6-(3-oxopiperazin-1-yl)pyridin-3-yl)methyl)nicotinamide], for which the pIC50 was below 5.00 at recombinant human ALDH-1, below 5.00 at MAO-A, 7.46 on recombinant human ALDH-2 and below 5.00 at MAO-B. In addition, in the data set on HepaRG spheroids, the “HepaRG 3D Spheroid MEC” value was “No Effect”.
